# Assays:
# Experiment in all cases: Antibacterial activity (minimum effective inhibitory concentration)
# Type in all cases: cell-based
# [1] = test system: Kleb. pneumoniae ATCC 10031; conditions: Klebsiella pneumoniae, ATCC10031, read-out: minimum effective inhibitory concentrations
# Description: (§1) Antibacterial activities (minimum effective inhibitory concentrations) of compounds of formula I (taken from the following Examples) are shown in the following Table.
# [2] = test system: Ps. aeruginosa NCTC 10490; conditions: Pseudomonas aeruginosa, NCTC10490, read-out: minimum effective inhibitory concentrations
# Description: as §1
# Sal. enteritidis 1891 = conditions: Salmonella enterica, read-out: minimum effective inhibitory concentrations
# Description: as §1
# [3] = test system: Serr. marcescens II D 620; conditions: Serratia marcescens, IID620, read-out: minimum effective inhibitory concentrations
# Description: as §1
# [4] = test system: Staph. epidermidis IIb 866; conditions: Staphylococcus epidermidis, IIB866, read-out: minimum effective inhibitory concentrations
# Description: as §1
MIC [1] [µg/mL],MIC [2] [µg/mL],MIC (Sal. enteritidis 1891) [µg/mL],MIC [3] [µg/mL],MIC [4] [µg/mL],SMILES
0.025,0.78,0.025,0.05,0.2,"Cn1nnnc1SCC1=C(C(=O)O)N2C(=O)C(NC(=O)C(=NOC3CC(=O)N3)c3csc(N)n3)C2SC1 (stereo not drawn) [Example 1, sodium (Z)-7-[α-(4-oxo-2-azptidinyloxyimino)-4-(2-amino-4-thiazolyl)acet-amido]-3-(1-methyl-5-tetrazolyl)thiomethyl-Δ^3-cephem-4-carboxylate]"
0.05,0.1,0.1,0.1,0.78,"Nc1nc(C(=NOC2CC(=O)N2)C(=O)NC2C(=O)N3C(C(=O)O)=C(CSc4nnnn4CCO)CSC23)cs1 (centres unmarked) [Example 2, sodium (Z)-7[-(2-amino-4-thiazolyl)-∝-(4-oxo-2-azetidingloxyiino)acetamido]-3-[1-(2-gtdrixy-ethyl)-5-tetrazolyl]thiomethyl-^3-cephem-4-carboxcylate]"
0.1,0.78,0.1,0.1,0.2,"Nc1ccc[n+](CC2=C(C(=O)[O-])N3C(=O)C(NC(=O)C(=NOC4CC(=O)N4)c4csc(N)n4)C3SC2)c1 (stereo not drawn) [Example 4, (Z)-7-[α(-2-amino-4-thiazolyl) -α-(4-oxo-2-azetidinyloxyimino)acetamido]-3-(3-amino-pyridiniomethyl)-^3-cephem-4-carboxylate]"
0.05,0.39,0.05,0.1,0.2,"C[N+]1(CC2=C(C(=O)[O-])N3C(=O)C(NC(=O)C(=NOC4CC(=O)N4)c4csc(N)n4)C3SC2)CCCC1 (centres unmarked) [Example 7, (Z)-7-[ -(2-amino-4-thiazolyl)- -(4-oxo-2-azetidinyloxyimino)-acetamido]-3-(1-methyl-1-pyrrolidiniomethyl)-3-cephem-4-carboxylate]"

# Reference: EP0176369A2, “7-(Alpha-(4-oxo-2-azetidinyl(or -azetidinylalkyl)-oxyimino)-alpha-(2-amino-4-thiazolyl)acetamido]-3- substituted-Delta 3-cephem-4-carboxylic acid compounds and salts thereof, their production, and medicaments containing them” (YAMANOUCHI PHARMACEUTICAL CO. LTD., priority 1984, dated 1986)
